The values below come from US10906946B2, “Thrombin inhibitors” (priority 2015, dated 2021).

Peptide text beside a SMILES is read from it.

For one test, the target named is T1, thrombin (Homo sapiens, UniProt P00734).
T1 construct: residues in the termini of the light chain; and in the autolysis loop and C-terminus of the heavy chain; purchased Chemo-Sero-Therapeutic Research Institute (Kaketsuken, Japan), as a gift, not bought
Description: Cleavage of peptide by thrombin (RP-HPLC, ESI-MS). Format: biochemical. The following applies: peptide incubated with thrombin (30:1). Here is the method: A. Evaluation of avathrin cleavage by thrombin by HPLC chromatograms. Avathrin (150 μM) was incubated with thrombin (5 μM) for various times and the reaction mixtures were separated using RP-HPLC; the masses of the cleavage products were analyzed with ESI-MS. At 0 min (upper panel), a single peak corresponding to full length avathrin (mass 3139 Da) was identified. At 120 min (middle panel), two new peaks corresponding to N-terminal cleavage product (^1[…]^10 of SEQ ID NO: 1; mass 982 Da) and C-terminal cleavage product ([…] (SEQ ID NO: 4); mass 2176 Da) were identified in addition to avathrin peak. At 600 min (lower panel), two peaks corresponding to the N- and C-terminal cleaved products were observed while avathrin peak was not observed, indicating complete cleavage. B. Time-dependent cleavage of avathrin by thrombin. Relative percentages of avathrin, its N- and C-terminal cleavage products were quantified by calculating areas under the curve. Each data point is the mean±S.D. of at least three independent experiments. C. Effect of thrombin cleavage on inhibitory properties of avathrin. Avathrin was incubated with thrombin (0.81 nM) for up to 36 h, and assayed at different time points for its ability to inhibit thrombin amidolytic activity on the chromogenic substrate S2238. […]
Thrombin amidolytic activity assays for all peptides were performed in 96-wells microtiter plates in 50 mM Tris buffer (pH 7.4) containing 100 mM NaCl and 1 mg/ml bovine serum albumin. […] The rates of formation of p-nitroaniline were followed by measuring the absorbance at 405 nm for 10 min with a Tecan InfinitePro M200 microplate reader from Tecan (Männedorf, Switzerland). […] To measure the inhibitory constants, different concentrations of S2238 were used and the residual velocities were determined using the Morrison's tight binding equation. Inhibition of thrombin fibrinogenolytic activity of peptides were tested by measuring absorbance at 650 nm using a Sunrise microplate reader from Tecan (Männedorf, Switzerland) as described previously [Koh C Y, et al., J Biol Chem 282: 29101-13 (2007)]. […] Effects of avathrin on the amidolytic activities of these serine proteases were determined using respective chromogenic substrates. […] After different incubation times, reactions were quenched with 1% TFA (pH 1.8) and loaded onto a Jupiter Proteo column (4 μm, 90 Å, 100×1.0 mm) attached to a Dionex nano-HPLC system from Thermo Fisher Scientific (Waltham, Mass., USA) and eluted using an acetonitrile gradient with 0.05% TFA and 99.95% MilliQ water as eluent A and 0.05% TFA, 19.95% MilliQ water and 80% ACN as eluent B. Masses of all peaks were measured to identify cleavage products, which were subsequently quantified by integrating the peaks and calculating the area under the curves. […]

In a further test the target is T2, human α-thrombin (Homo sapiens, UniProt P00734).
T2 construct: residues in the termini of the light chain; purchased Chemo-Sero-Therapeutic Research Institute (Kaketsuken, Japan), as a gift, not bought
Description: Thrombin amidolytic activity assay with chromogenic substrate S2238. Format: biochemical. The method, boiled down: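 Run in 50 mM Tris pH 7.4, 100 mM NaCl, 1 mg/ml BSA; p-nitroaniline release from S2238 monitored at 405 nm for 10 min. IC50 and Hill coefficients from dose-response fits; inhibition constants from varied S2238 concentrations using Morrison tight-binding equation.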

For another test, the system named is blood. Nature of the test: Anti-coagulation effect of peptides in blood tubes (visual clot formation). The arrangement: species or system human (healthy volunteers). The conditions noted are these: room temperature. How it is done: (§1) Individual peptides are dissolved in phosphate buffered saline to prepare 10× peptide solutions (ie. concentrations of peptides are 10 times higher than the final concentrations at which they are to be tested). 0.3 ml of the 10× peptide solutions are placed in blood tubes without any additives. Blood was drawn from healthy volunteers using syringes and immediately transferred to a 50 ml conical centrifuge tube (Falcon tube) before pipetting 2.7 ml of the blood into blood tubes with peptide solutions. Final concentrations of peptides are as stated in Table 5 and 6.
Blood tubes with various peptides at different concentrations were left standing at room temperature until tested at designated times. At different time points, tubes were inverted several times and visually inspected for insoluble materials as indications of clot formation.

In test [1] the test system is platelets (ADP-induced platelet aggregation). Description: Preservation of platelet function in blood tubes (Multiplate, ADP-induced platelet aggregation). Format: cell-based, human (healthy volunteers). The following applies: ADP agonist. Here is the method:
as §1
Blood tubes with various peptides at different concentrations were left standing at room temperature until tested at designated times. At different time points, tubes were inverted several times and blood samples were taken out for platelet aggregation tests using a Multiplate® Platelet aggregometer with adenosine diphosphate (ADP) as agonist according to manufacturer's recommended protocols.

As to `CC[C@H](C)[C@H](NC(=O)[C@H](CCCNC(=N)N)NC(=O)[C@@H]1CCCN1C(=O)[C@@H](NC(=O)[C@H](C)NC(=O)[C@@H](NC(=O)[C@H](CCC(N)=O)NC(=O)[C@H](Cc1c[nH]cn1)NC(=O)CNC(=O)CNC(=O)[C@@H](N)CO)[C@@H](C)O)C(C)C)C(=O)N[C@@H](CO)C(=O)N[C@@H](CCCCN)C(=O)N[C@@H](CCC(N)=O)C(=O)NCC(=O)N[C@@H](CC(C)C)C(=O)NCC(=O)NCC(=O)N[C@@H](CC(=O)O)C(=O)N[C@@H](Cc1ccccc1)C(=O)N[C@@H](CCC(=O)O)C(=O)N[C@@H](CCC(=O)O)C(=O)N[C@H](C(=O)N1CCC[C@H]1C(=O)N[C@@H](CO)C(=O)N[C@@H](CC(=O)O)C(=O)N[C@@H](CCC(=O)O)C(=O)N[C@H](C(=O)N[C@H](C(=O)N[C@@H](CCC(=O)O)C(=O)O)[C@@H](C)CC)[C@@H](C)CC)[C@@H](C)CC` [Peptide K10R] (H-SGGHQTAVPRISKQGLGGDFEEIPSDEIIE-OH; N-terminus and C-terminus assumed), the “time to complete cleavage by thrombin” value on thrombin (listed as K10β-avathrin) was 3 h. Moreover, at human α-thrombin, the “fold gain in activity compared with avathrin” value amounted to 5 fold. For the same compound, the “Hill slope of thrombin amidolytic inhibition” value at human α-thrombin (0 min pre-incubation where stated) turned out to be 1.10±0.01. Further, on human α-thrombin (IC50 of inhibition of thrombin amidolytic activity, thrombin 0.81 nM, S2238 100 μM, without pre-incubation (0 min) where stated), it took 1.15 ± 0.45 nM to reach half-maximal inhibition (IC50). The “Hill Slope” value at human α-thrombin (Table 2) stood at 1.10 ± 0.01.

Turning to `CC[C@H](C)[C@H](NC(=O)[C@H](C)NC(=O)[C@H](CCC(=O)O)NC(=O)[C@H](Cc1ccccc1)NC(=O)[C@H](CC(=O)O)NC(=O)[C@H](Cc1ccccc1)NC(=O)[C@@H]1CCCN1C(=O)[C@@H]1CCCN1C(=O)[C@H](C)NC(=O)[C@@H](NC(=O)[C@H](CCCCN)NC(=O)[C@H](Cc1c[nH]cn1)NC(=O)[C@H](CCSC)NC(=O)[C@H](CCCCN)NC(=O)[C@@H]1CCCN1C(=O)[C@H](CCC(=O)O)NC(=O)[C@H](C)NC(=O)[C@@H](NC(=O)[C@H](CC(=O)O)NC(=O)CNC(=O)[C@H](CCC(N)=O)NC(=O)[C@H](CC(=O)O)NC(=O)[C@@H](N)CO)C(C)C)[C@@H](C)O)C(=O)N1CCC[C@H]1C(=O)N[C@@H](CCC(=O)O)C(=O)N[C@@H](CCC(=O)O)C(=O)N[C@@H](Cc1ccc(O)cc1)C(=O)N[C@@H](CC(C)C)C(=O)N[C@@H](CC(=O)O)C(=O)N[C@@H](CC(=O)O)C(=O)N[C@@H](CCC(=O)O)C(=O)N[C@@H](CO)C(=O)O` [Variegin, reference compound], the “Time to observe clot formation” value in the test with blood (final concentration 75 micromolar) is 46 h; in the test with blood (final concentration 150 micromolar), 52 to 66 h; in the test on blood (final concentration 300 micromolar), 52 to 66 h. The “Multiplate AUC (U)” value worked out at 65.2 U in test [1] (1.5 h, peptide 150 μM); 52.3 U in test [1] (1.5 h, peptide 300 μM); 48.6 U in test [1] (4 h, peptide 150 μM); 33.9 U in test [1] (4 h, peptide 300 μM); 41.9 U in test [1] (24 h, peptide 150 μM); 40.5 U in test [1] (24 h, peptide 300 μM). Besides, the “Multiplate AUC (U)” value in test [1] (48 h, peptide 300 μM) is reported as 18.3 U. The “time to complete cleavage by thrombin” value at thrombin was 4 h.
